Experimental data reported in patent publication US9597408B2, “Peptide-mediated non-covalent delivery of active agents across the blood-brain barrier” (Mayo Foundation for Medical Education and Research, priority 2009, dated 2017).
Where no end group is shown, it is not given here.

Experiments:
[1] = system: BBB; assay: Necessity of covalent linking of K16 and ApoE moieties: β-galactosidase staining of brain sections; type: in vivo, mice; conditions: β-galactosidase mixed with the peptide(s); FIG. 7
Procedure: Delivery of β-galactosidase in brain with K16 peptide (SEQ ID NO: 4) alone (A), with ApoE peptide only (B), with K16 peptide (SEQ ID NO: 4)+ApoE peptide (C), and with K16APoE peptide (SEQ ID NO: 22) (D).
The necessity of covalent linking of the K16 (SEQ ID NO: 4) and ApoE (SEQ ID NO: 13) peptide moieties was evaluated for non-covalent transport of a protein across the BBB. For this, β-galactosidase was mixed with either the ApoE peptide, the peptide K16 (SEQ ID NO: 4), ApoE plus K16 (SEQ ID NO: 4) or with K16ApoE (SEQ ID NO: 22), and injected in mice.

[2] = system: BBB; design: species or system mice; conditions: mouse, in vivo
Procedure: FIG. 8 illustrates the testing mutant ApoE peptides for their potential as non-covalent transporters of proteins across the BBB. A—no peptide, no β-gal; B—K16ApoE (SEQ ID NO: 22)+β-gal; C—K16L3N7 (SEQ ID NO: 126)+β-gal; D—K16L3L20 (SEQ ID NO: 127)+β-gal; E—K16N7L20 (SEQ ID NO: 128)+β-gal.
β-galactosidase was mixed with equal amounts of various peptide transporters and injected into mice. Slides were prepared using 25 μm sections of the mice brains one hour after injection followed by development of enzyme staining (FIG. 8).

[3] = system: mouse brain; assay: microSPECT imaging of delivery of radioiodinated human IgG and IgM; type: in vivo
Procedure: Micro SPECT/CT experiments were conducted on a Gamma Medica X SPECT System (GE Healthcare). Human IgG (Sigma) and IgM (Sigma) were labeled to a high specific activity using the Chloramine-T method. […] Immediately subsequent to the intravenous bolus injection, the mice were imaged every hour for a total of 6 hours. At the completion of the 6 hour time point, each mouse was euthanized and the systemic blood supply was transcardially perfused with 10 mL phosphate buffered saline, and imaged after 30 minutes.
Since many potentially therapeutic proteins against brain-associated disorders are immunoglobulins, delivery of IgG and IgM through K16ApoE (SEQ ID NO: 22) in mouse brain was evaluated by micro-single photon emission computed tomography (microSPECT) imaging. For this, radioiodinated human IgG (Sigma, product # I 4506) and human IgM (Sigma, product # I 8260) were mixed with K16ApoE (SEQ ID NO: 22) and injected intravenously. Anesthetized animals were then subjected to imaging for 6 hours at 1 hour interval. Cardiac perfusion was then performed, after which final imaging was done at 30 minutes post-perfusion. Results from these experiments provide a number of indications (FIG. 4): First, it appears that peak delivery of both IgG and IgM into brain happens around 2 hours post-injection of the peptide-protein mix, after which uptake of the proteins in the brain remains relatively unchanged up to 6 hours (maximum time point tested). Second, cardiac perfusion appears to remove most of the radioactive protein in the vasculature, concomitantly increasing the difference between apparent brain-uptake of the protein with and without the carrier peptide (˜5-fold).

[4] = system: brain; assay: β-galactosidase delivery in brain, enzyme activity staining of brain slices; type: in vivo
Procedure: Required amount of the peptide and protein were mixed in a final volume of 300 μL PBS (phosphate buffered saline), and incubated at room temperature for 60 minutes. The mixture was vortexed for a few seconds, every fifteen minutes during the incubation period.
The mixture was injected intravenously as a bolus into the lumen of the femoral vein. This was accomplished using a heat pulled PE50 catheter. At the conclusion of the experiment, the mouse was euthanized with a lethal dose of sodium pentobarbital. Each mouse was perfused with 10 mL PBS. This perfusion was accomplished through the standard trans cardial method. The brain was removed from the skull and positioned to make an initial coronal slice at −2.0 mm bregma. Subsequently, 25 μm coronal sections were cut on a cryostat and placed on charged slides for staining of β-galactosidase activity.
Evaluation of β-galactosidase enzymatic activity was accomplished by an initial 15 minute fixation of the brain sections in 0.25% glutaraldehyde. The slides were washed with 3 changes of PBS for 5 minutes each and then rinsed in distilled water for 5 minutes. The brain sections were incubated in X-Gal (0.2%) working solution, pH 7.38, for 18 hours at 37° C. in covered containers. Following this incubation the sections were dehydrated and coverslips were applied.
To evaluate the potential of K16ApoE (SEQ ID NO: 22) for delivering a protein across the BBB, the enzyme β-galactosidase was injected in mice with or without prior mixing with K16ApoE (SEQ ID NO: 22) (at a protein to peptide molar ratio of 1:70). The experiment was repeated more than a dozen times. […] It is speculated that either X-gal or 5-bromo-4-chloroindole or both somehow leach out of this region faster than other regions of the brain resulting to a faint signal for β-galactosidase activity.

[5] = system: brain; design: species or system mice; conditions: mouse, in vivo
Procedure: FIG. 1 is a series of images illustrating the differences between delivery of Alexa-IgG complexed to K16ApoE (SEQ ID NO: 22) into brain and uncomplexed Alexa-IgG.
In this experiment, AlexaIgG488 was injected into mice with or without mixing with K16ApoE peptide (SEQ ID NO:22). Brain sections were made 1 hour after delivery.

[6] = system: BBB; design: species or system mice; conditions: mouse, in vivo; remark: listed apart in the source
Procedure: Each mouse (represented by A through G) received an injection of K16ApoE (SEQ ID NO: 22), followed by injection of β-galactosidase at the indicated times. Brain slices were made 4 hours after β-galactosidase injection and were followed by staining for activity of the enzyme. A—β-galactosidase was injected 1 minute after K16ApoE (SEQ ID NO: 22) injection. B—β-galactosidase was injected 5 minutes after K16ApoE (SEQ ID NO: 22) injection. C—β-galactosidase was injected 10 minutes after K16ApoE (SEQ ID NO: 22) injection. D—β-galactosidase was injected 30 minutes after K16ApoE (SEQ ID NO: 22) injection. E—β-galactosidase was injected 1 hour after K16ApoE (SEQ ID NO: 22) injection. F—β-galactosidase was injected 2 hours after K16ApoE (SEQ ID NO: 22) injection. G—β-galactosidase was injected 4 hours after K16ApoE (SEQ ID NO: 22) injection. H—positive control (β-galactosidase mixed with K16ApoE (SEQ ID NO: 22) was injected, brain slices were made 4 hours after the injection and proceeded for staining for enzyme activity).
A transporter that efficiently carries a protein in the brain should not do so by impairing the integrity of the BBB. To evaluate if K16ApoE (SEQ ID NO: 22) impairs the integrity of the BBB, the peptide was first injected intravenously, then injected β-galactosidase at different time intervals. The control mice received the enzyme mixed with the peptide. […]

[7] = system: BBB; design: species or system mice; conditions: mouse, in vivo; remark: listed apart in the source
Procedure: The delivery of radiolabeled IgG across the BBB in different brain regions in mice with and without the peptide K16ApoE (SEQ ID NO:22) was evaluated. In addition, the integrity of the BBB after delivery of IgG with K16ApoE (SEQ ID NO: 22) was examined. […] of ^125I-IgG were mixed with varying amounts of the peptide K16ApoE (SEQ ID NO: 22) (0-55 μmol), and the mixture injected intravenously into the mice. ^131I-IgG not complexed with the peptide was injected into the same animals at 59 minutes and allowed to circulate for 1 minute subsequent to the initial femoral vein injection of ^125I-IgG+K16ApoE (SEQ ID NO: 22). Uptake of ^125I-IgG and ^131I-IgG were measured in different areas of the brain after 60 minutes.
PS values reflect the amount of ^125I-IgG that has crossed the BBB, whereas Vp values indicate the amount of ^131I-IgG at the BBB but which has not crossed the BBB.

“KKKKKKKKKKKKKKKK [K16, KKKKKKKKKKKKKKKK]” was tested, and the “β-galactosidase staining in brain sections” value [1] was “β-galactosidase staining only in slides from mice receiving β-galactosidase mixed with K16ApoE”.

“KKKKKKKKKKKKKKKKLRLRLANHLRKLRKRLLRDA [mutant A, KKKK KKKK KKKK KKKK LRLR LANH LRKL RKRL LRDA]” was tested, and the “transport of β-galactosidase compared with wild-type ApoE blood-brain barrier agent” value [2] was “worse than the wild-type”.

In the case of “KKKKKKKKKKKKKKKKLRLRLASHLRKLRKRLLRDL [mutant B, KKKK KKKK KKKK KKKK LRLR LASH LRKL RKRL LRDL]”, the “transport of β-galactosidase compared with wild-type ApoE blood-brain barrier agent” value [2] is reported as “at least as well as wild-type or better”.

“KKKKKKKKKKKKKKKKLRVRLANHLRKLRKRLLRDL [mutant C, KKKK KKKK KKKK KKKK LRVR LANH LRKL RKRL LRDL]” was tested, and the “transport of β-galactosidase compared with wild-type ApoE blood-brain barrier agent” value [2] was “at least as well as wild-type or better”.

With “KKKKKKKKKKKKKKKKLRVRLASHLRKLRKRLLRDA [K16ApoE, KKKKKKKKKKKKKKKKLRVRLASHLRKLRKRLLRDA]” the “share of the injected immunoglobulins transported into the brain” value ([3]; IgG and IgM, under the experimental condition) was “about 1%”, the “difference between brain-uptake of the protein with and without the carrier peptide” value ([3]; IgG and IgM, after cardiac perfusion) was about 5 fold and the “time of peak delivery of IgG and IgM into brain” value ([3]; post-injection of peptide-protein mix, 70-fold molar excess of peptide, FIG. 4) was “around 2 hours”. For the same substance, the “areas of the brain reached by the delivered β-galactosidase” value ([4]; mouse, in vivo) was “virtually every area of the brain”, the “β-galactosidase activity in brain” value ([4]; mouse, in vivo) was “intense β-galactosidase activity” and the “contrast and enhancement of brain structures compared to uncomplexed AlexaIgG488” value [5] was “significantly brighter contrast and enhancement of brain structures”. For the same substance, the “effect of the peptide by itself on the BBB” value [6] was “did not seem to affect the BBB”, the “time until binding of injected peptide to proteins and cells in the circulation is virtually complete” value ([6]; iv) was at most 10 min and the “Vp values in all the brain regions examined (in words)” value [7] was “virtually unchanged”. The “damage of the BBB due to prior exposure to the peptide” value [7] was “not damaged”.

“β-galactosidase: Bacterial β-galactosidase purchased from Calbiochem, enzyme injected alone [reference compound]” was tested, and the “β-galactosidase activity in brain” value ([4]; protein to peptide molar ratio 1:70 or enzyme alone, slices 6 hours after injection, FIG. 3A) was “no activity”.
